Assay results reported in patent publication US20260103479A1, “PRODRUGS OF OPICAPONE” (BIAL- PORTELA & CA, S.A., priority 2022, published 2026).
Read-outs that look alike come from different tables or passages of the source.

What was measured:
[1] = In vitro stability in human liver S9 fraction; type: in vitro ADME; settings: 1 μM; S9 1 mg/mL; after 0.75 h
Experimental: The stability of 1 μM of compound 1 was assessed in the following fractions: phosphate buffer, human plasma, rat plasma, human liver S9 fraction, rat liver S9 fraction and rat liver homogenates.
Reaction was initiated by adding of 1 μM of test compound to the desired matrix (plasma, liver homogenate at 0.4 g/mL or S9 fraction at 1 mg/mL, respectively), with a final volume of 350 μL. At the following time points 0, 5, 15, 30, 45, 60 min, 50 μL of sample is taken and precipitated with 200 μL of acetonitrile 1% formic acid containing the internal standard (opicapone ^13C6) at 1 μM. Samples were centrifuged at 20,000 g at 4° C. for 10 min, and then analysed by LC-MS/MS using a bioanalytical method previously developed in-house.
The stability of 1 μM of compound 4 was assessed in the following fractions: phosphate buffer, human plasma, rat plasma, human liver S9 fraction, rat liver S9 fraction and rat liver homogenates.
Reaction was initiated by adding 1 μM of test compound to the desired matrix (plasma or S9 fraction at 1 mg/mL), with a final volume of 250 μL. […] Samples were centrifuged at 20,000 g at 4° C. for 10 min, and then analysed by LC-MS/MS using bioanalytical methods previously developed in-house. […]

[2] = Stability in buffer at pH 1.2, 4.5 and 6.8; type: physicochemical; settings: 2500 ng/mL, 37° C.; for stability in buffer at pH 1.2 / stability in buffer at pH 4.5 / stability in buffer at pH 6.8: 4 hours
Experimental: The stability of 2500 ng/mL of compounds 1 and 4 was assessed at different pH values of 1.2, 4.5 and 6.8 over 4 hours at 37° C. • Buffer solutions were prepared as follows: • Buffer solution pH 1.2: • To prepare 1L: • 3.73 g potassium chloride • 7 mL HCl37% • Add purified water • Check/Adjust pH to 1.20±0.05 (using solutions: HCl 1M and/or NaOH 1M) • Buffer solution pH 4.5 • To prepare 1L: • 2.99 g sodium acetate trihydrate • 14 mL acetic acid 2M • Add purified water • Check/Adjust pH to 4.50±0.05 (using solutions: acetic acid 2M and/or NaOH 1M) • Buffer solution pH 6.8 • To prepare 1L: • 6.81 g potassium dihydrogen phosphate • 22 mL NaOH 1M • Add purified water • Check/Adjust pH to 6.80±0.05 (using solutions: HCl 1M and/or NaOH 1M)

erythrocyte S-COMT = target: T1, erythrocyte S-COMT (Rattus norvegicus, UniProt P22734); experiment: Subcutaneous pharmacodynamics: erythrocyte S-COMT activity (adrenaline to metanephrine); type: in vivo, male Wistar rats; settings: sc, s.c. 3 mg/kg
T1 construct: from tissue; host or cells: erythrocytes of male Wistar rats (haemolysate supernatant, 20 000 x g)
T1 sequence (P22734 1-221 isoform P22734-2): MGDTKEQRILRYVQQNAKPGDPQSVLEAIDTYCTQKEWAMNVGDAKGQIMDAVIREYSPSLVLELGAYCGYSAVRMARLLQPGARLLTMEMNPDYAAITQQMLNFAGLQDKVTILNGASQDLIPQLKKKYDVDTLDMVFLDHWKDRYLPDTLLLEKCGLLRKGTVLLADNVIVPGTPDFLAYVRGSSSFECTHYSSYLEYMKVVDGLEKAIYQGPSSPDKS
Experimental: The pharmacodynamic properties of compounds 1 and 4 compared to oral administered micronized crystalline opicapone were assessed by subcutaneous injection to 4 male Wistar rats (3 mg/kg; DMSO:20% HPBCD (1:9)) then measurement of erythrocyte S-COMT activity over time.
During the studies, blood was collected at different time points, from tail vein, spun at 1500×g in a refrigerated centrifuge (4° C.) for 15 min, and the plasma and erythrocytes obtained were stored at −80° C. until further analysis. The plasma samples collected were analysed for compound 1, compound 4 and opicapone exposure, as previously described
Erythrocyte S-COMT activity was evaluated by the ability to methylate adrenaline to metanephrine. Aliquots of erythrocytes were haemolyzed by addition of 4 volumes of ice-cold ultrapure water and homogenization in a bead mill homogenizer, using glass beads, followed by 10 minutes incubation on wet ice. After centrifugation (20 000×g, 20 minutes, 4° C.), the supernatant containing S-COMT was quantified for total protein using Bradford assay. Supernatants were diluted with water to 4 mg total protein per ml. 100 μL of these diluted supernatants were then pre-incubated in a 96-well plate for 20 min with 80 μL of phosphate buffer (10 mM, pH 7.8); thereafter, the reaction mixture was incubated for 10 min with adrenaline (10 mM; 20 μL) in the presence of a saturating concentration of S-adenosyl-L-methionine, the methyl donor (500 μM). The incubation medium also contained pargyline (100 μM), MgCl2, (100 μM) and EGTA (1 mM). The pre-incubation and incubation were carried out at 37° C., under conditions of light protection with continuous shaking and without oxygenation. At the end of the incubation period the plate was transferred to ice and the reaction was stopped by the addition of 15 μL of glacial acetic acid. 60 μL of each sample were then transferred to a new 96-well containing 400 μL of 0.1% formic acid, followed by plate centrifugation (2000×g, 5 minutes 4° C.). The supernatants were used for the quantification of metanephrine by LC-MS/MS.

[3] = 2 h after dosing, read-out: maximal inhibition of COMT activity in erythrocytes
[4] = at least until 8 h post-dosing, read-out: inhibition of COMT maintained

Row | Compound | stability in human liver S9 fraction [1] | stability in buffer at pH 1.2 [2] | stability in buffer at pH 4.5 [2] | stability in buffer at pH 6.8 [2] | inhibition at 3 mg/kg (erythrocyte S-COMT; [3]) [%] | inhibition at 3 mg/kg (erythrocyte S-COMT; [4]) [%] | solubility in buffer at pH 1.2 [2]
1 | Cc1c(Cl)c(C)[n+]([O-])c(Cl)c1-c1noc(-c2cc(OCOP(=O)(O)O)c(O)c([N+](=O)[O-])c2)n1 [Compound 4, 2,5-dichloro-3-(5-(4-hydroxy-3-nitro-5-((phosphonooxy)methoxy)phenyl)-1,2,4-oxadiazol-3-yl)-4,6-dimethylpyridine 1-oxide] | stable | stable | stable | stable | 94 | > 80 | 
2 | Cc1c(Cl)c(C)[n+]([O-])c(Cl)c1-c1noc(-c2cc(OP(=O)(O)O)c(O)c([N+](=O)[O-])c2)n1 [Compound 1, 2,5-dichloro-3-(5-(4-hydroxy-3-nitro-5-(phosphonooxy)phenyl)-1,2,4-oxadiazol-3-yl)-4,6-dimethylpyridine 1-oxide] | stable | stable | stable | stable | 96 | > 80 | not immediately soluble
